{"source": "paper PMC8274277", "about": "(Antiviral Research, 2021)", "key": {"[1]": {"system": "SARS-CoV-2", "assay_type": "cell-based, SARS-CoV-2 strain BavPat1", "conditions": "VeroE6 cells"}, "[2]": {"conditions": "hospitalized COVID-19 patients; ref Aman et al., 2021; cited from earlier work"}, "[3]": {"system": "SARS-CoV-2", "assay": "Antiviral assay using bronchial human airway epithelium", "assay_type": "cell-based, SARS-CoV-2 strain BavPat1"}, "[4]": {"system": "SARS-CoV-2", "assay": "Lung histology of infected hamsters", "assay_type": "in vivo, golden Syrian hamsters", "conditions": "sacrificed at 5 dpi"}, "[5]": {"system": "SARS-CoV-2", "set-up": "species or system golden Syrian hamsters", "conditions": "hamster, in vivo"}}, "note": "Like-named read-outs stand apart in the source and are kept apart here.", "data": [{"smiles": "O=C(Nc1ccc(OC(F)(F)Cl)cc1)c1cnc(N2CC[C@@H](O)C2)c(-c2cc[nH]n2)c1", "note": "[Asciminib]", "values": [{"measurement": "selectivity Index (SI, CC50/EC50)", "setting": "[1]", "value": 1.1}, {"measurement": "antiviral activity", "setting": "[1]; SARS-CoV-2", "value": "did not show any antiviral activity"}]}, {"smiles": "Cc1ccc(NC(=O)c2ccc(CN3CCN(C)CC3)cc2)cc1Nc1nccc(-c2cccnc2)n1", "note": "[Imatinib]", "values": [{"measurement": "time to discontinuation of supplemental oxygen and mechanical ventilation", "setting": "[2]", "value": "does not reduce the time to discontinuation of supplemental oxygen and mechanical ventilation"}, {"measurement": "viral RNA yields in apical washes", "setting": "[3]", "value": "small significant reduction"}, {"measurement": "antiviral activity (viral RNA yields and infectious titres in apical washes)", "setting": "[3]; […], imatinib 10, 5, remdesivir 10 μM", "value": "no other significant antiviral activity"}, {"measurement": "lung histopathological impairements vs untreated group", "setting": "[4]; first experiment, 32 mg/day", "value": "significant improvement"}, {"measurement": "lung histopathology grade severity", "setting": "[4]; second experiment, 32, 16 and 8 mg/day", "value": "did not led to a significant improvement"}, {"measurement": "molecular plasma viral loads", "setting": "[5]; po", "value": "did not affect significantly"}]}, {"smiles": "Cc1ccc(NC(=O)c2ccc(CN3CCN(C)CC3)cc2)cc1Nc1nc(-c2cccnc2)cs1", "note": "[Masitinib]", "values": [{"measurement": "selectivity Index (SI, CC50/EC50)", "setting": "[1]", "value": 11.5}]}, {"smiles": "CCC(CC)COC(=O)[C@H](C)N[P@](=O)(OC[C@H]1O[C@@](C#N)(c2ccc3c(N)ncnn23)[C@H](O)[C@@H]1O)Oc1ccccc1", "note": "[Remdesivir]", "values": [{"measurement": "antiviral activity (viral RNA yields and infectious titres in apical washes)", "setting": "[3]", "value": "strong antiviral activity"}]}, {"smiles": "NC(=O)c1nc(F)c[nH]c1=O", "note": "[Favipiravir]", "values": [{"measurement": "lung infectious titers (TCID50 assay)", "setting": "[5]", "value": "significant reductions"}, {"measurement": "lung viral RNA yields (RT-qPCR)", "setting": "[5]", "value": "significant reductions"}, {"measurement": "viral replication in clarified lung homogenates and plasma", "setting": "[5]", "value": "significant reduction of viral replication"}]}]}
